Structure (SMILES): CSCC[C@H](NC(=O)OCC1c2ccccc2-c2ccccc21)C(=O)O
- solubility (mole fraction) (in 2-butanone, 283.15 K): 0.0269
- solubility (mole fraction) (in 2-butanone, 288.15 K): 0.0314
- solubility (mole fraction) (in 2-butanone, 293.15 K): 0.0336
- solubility (mole fraction) (in 2-butanone, 298.15 K): 0.0406
- solubility (mole fraction) (in 2-butanone, 303.15 K): 0.0454
- solubility (mole fraction) (in 2-butanone, 308.15 K): 0.0513
- solubility (mole fraction) (in 2-butanone, 313.15 K): 0.0621
- solubility (mole fraction) (in 2-butanone, 318.15 K): 0.0695
- solubility (mole fraction) (in 2-butanone, 323.15 K): 0.0818
- solubility (mole fraction) (in acetone, 283.15 K): 0.0457
- solubility (mole fraction) (in acetone, 288.15 K): 0.0475
- solubility (mole fraction) (in acetone, 293.15 K): 0.0553
- solubility (mole fraction) (in acetone, 298.15 K): 0.0614
- solubility (mole fraction) (in acetone, 303.15 K): 0.0722
- solubility (mole fraction) (in acetone, 308.15 K): 0.0806
- solubility (mole fraction) (in acetone, 313.15 K): 0.0892
- solubility (mole fraction) (in acetone, 318.15 K): 0.0961
- solubility (mole fraction) (in acetone, 323.15 K): 0.11
- solubility (mole fraction) (in acetonitrile, 283.15 K): 0.00368
- solubility (mole fraction) (in acetonitrile, 288.15 K): 0.00465
- solubility (mole fraction) (in acetonitrile, 293.15 K): 0.00571
- solubility (mole fraction) (in acetonitrile, 298.15 K): 0.00724
- solubility (mole fraction) (in acetonitrile, 303.15 K): 0.00847
- solubility (mole fraction) (in acetonitrile, 308.15 K): 0.00974
- solubility (mole fraction) (in acetonitrile, 313.15 K): 0.0111
- solubility (mole fraction) (in acetonitrile, 318.15 K): 0.0127
- solubility (mole fraction) (in acetonitrile, 323.15 K): 0.0155
- solubility (mole fraction) (in isobutanol, 283.15 K): 0.00438
- solubility (mole fraction) (in isobutanol, 288.15 K): 0.00573
- solubility (mole fraction) (in isobutanol, 293.15 K): 0.00736
- solubility (mole fraction) (in isobutanol, 298.15 K): 0.0102
- solubility (mole fraction) (in isobutanol, 303.15 K): 0.0136
- solubility (mole fraction) (in isobutanol, 308.15 K): 0.0165
- solubility (mole fraction) (in isobutanol, 313.15 K): 0.023
- solubility (mole fraction) (in isobutanol, 318.15 K): 0.032
- solubility (mole fraction) (in isobutanol, 323.15 K): 0.0402
- solubility (mole fraction) (in isopentanol, 283.15 K): 0.00409
- solubility (mole fraction) (in isopentanol, 288.15 K): 0.00489
- solubility (mole fraction) (in isopentanol, 293.15 K): 0.00573
- solubility (mole fraction) (in isopentanol, 298.15 K): 0.00778
- solubility (mole fraction) (in isopentanol, 303.15 K): 0.00996
- solubility (mole fraction) (in isopentanol, 308.15 K): 0.0126
- solubility (mole fraction) (in isopentanol, 313.15 K): 0.0154
- solubility (mole fraction) (in isopentanol, 318.15 K): 0.02
- solubility (mole fraction) (in isopentanol, 323.15 K): 0.0248
- solubility (mole fraction) (in isopropanol, 283.15 K): 0.00635
- solubility (mole fraction) (in isopropanol, 288.15 K): 0.00765
- solubility (mole fraction) (in isopropanol, 293.15 K): 0.00792
- solubility (mole fraction) (in isopropanol, 298.15 K): 0.00932
- solubility (mole fraction) (in isopropanol, 303.15 K): 0.0142
- solubility (mole fraction) (in isopropanol, 308.15 K): 0.0213
- solubility (mole fraction) (in isopropanol, 313.15 K): 0.0326
- solubility (mole fraction) (in isopropanol, 318.15 K): 0.0474
- solubility (mole fraction) (in isopropanol, 323.15 K): 0.0669
- solubility (mole fraction) (in n-butanol, 283.15 K): 0.0142
- solubility (mole fraction) (in n-butanol, 288.15 K): 0.0178
- solubility (mole fraction) (in n-butanol, 293.15 K): 0.0204
- solubility (mole fraction) (in n-butanol, 298.15 K): 0.0237
- solubility (mole fraction) (in n-butanol, 303.15 K): 0.0295
- solubility (mole fraction) (in n-butanol, 308.15 K): 0.0339
- solubility (mole fraction) (in n-butanol, 313.15 K): 0.0394
- solubility (mole fraction) (in n-butanol, 318.15 K): 0.0478
- solubility (mole fraction) (in n-butanol, 323.15 K): 0.0542
- solubility (mole fraction) (in n-butyl acetate, 283.15 K): 0.0129
- solubility (mole fraction) (in n-butyl acetate, 288.15 K): 0.015
- solubility (mole fraction) (in n-butyl acetate, 293.15 K): 0.0173
- solubility (mole fraction) (in n-butyl acetate, 298.15 K): 0.0203
- solubility (mole fraction) (in n-butyl acetate, 303.15 K): 0.0242
- solubility (mole fraction) (in n-butyl acetate, 308.15 K): 0.028
- solubility (mole fraction) (in n-butyl acetate, 313.15 K): 0.0347
- solubility (mole fraction) (in n-butyl acetate, 318.15 K): 0.0426
- solubility (mole fraction) (in n-butyl acetate, 323.15 K): 0.0532
- solubility (mole fraction) (in n-pentanol, 283.15 K): 0.00977
- solubility (mole fraction) (in n-pentanol, 288.15 K): 0.0117
- solubility (mole fraction) (in n-pentanol, 293.15 K): 0.0149
- solubility (mole fraction) (in n-pentanol, 298.15 K): 0.019
- solubility (mole fraction) (in n-pentanol, 303.15 K): 0.0272
- solubility (mole fraction) (in n-pentanol, 308.15 K): 0.033
- solubility (mole fraction) (in n-pentanol, 313.15 K): 0.0399
- solubility (mole fraction) (in n-pentanol, 318.15 K): 0.0514
- solubility (mole fraction) (in n-pentanol, 323.15 K): 0.0667
- solubility (mole fraction) (in n-propanol, 283.15 K): 0.0101
- solubility (mole fraction) (in n-propanol, 288.15 K): 0.0141
- solubility (mole fraction) (in n-propanol, 293.15 K): 0.0172
- solubility (mole fraction) (in n-propanol, 298.15 K): 0.0231
- solubility (mole fraction) (in n-propanol, 303.15 K): 0.0271
- solubility (mole fraction) (in n-propanol, 308.15 K): 0.0324
- solubility (mole fraction) (in n-propanol, 313.15 K): 0.0407
- solubility (mole fraction) (in n-propanol, 318.15 K): 0.0496
- solubility (mole fraction) (in n-propanol, 323.15 K): 0.0542
- solubility (mole fraction) (in n-propyl acetate, 283.15 K): 0.0155
- solubility (mole fraction) (in n-propyl acetate, 288.15 K): 0.0181
- solubility (mole fraction) (in n-propyl acetate, 293.15 K): 0.021
- solubility (mole fraction) (in n-propyl acetate, 298.15 K): 0.0252
- solubility (mole fraction) (in n-propyl acetate, 303.15 K): 0.0295
- solubility (mole fraction) (in n-propyl acetate, 308.15 K): 0.0361
- solubility (mole fraction) (in n-propyl acetate, 313.15 K): 0.0399
- solubility (mole fraction) (in n-propyl acetate, 318.15 K): 0.043
- solubility (mole fraction) (in n-propyl acetate, 323.15 K): 0.0456
- solubility (mole fraction) (in sec-butanol, 283.15 K): 0.00898
- solubility (mole fraction) (in sec-butanol, 288.15 K): 0.0109
- solubility (mole fraction) (in sec-butanol, 293.15 K): 0.0152
- solubility (mole fraction) (in sec-butanol, 298.15 K): 0.0223
- solubility (mole fraction) (in sec-butanol, 303.15 K): 0.0311
- solubility (mole fraction) (in sec-butanol, 308.15 K): 0.0438
- solubility (mole fraction) (in sec-butanol, 313.15 K): 0.0506
- solubility (mole fraction) (in sec-butanol, 318.15 K): 0.0612
- solubility (mole fraction) (in sec-butanol, 323.15 K): 0.0868
